Results reported in US20100215579A1, “PHEN-NAPHTHALENE AND PHEN-QUINOLINE DERIVATIVES AND THEIR USE FOR BINDING AND IMAGING AMYLOID PLAQUES” (The Trustees of the University of Pennsylvania, priority 2007, published 2010).

Assays:
[1] = Log P (octanol/Na2HPO4 buffer pH 7.4); type: physicochemical; conditions: octanol/0.1 M Na2HPO4 buffer (pH 7.4)
[2] = Biodistribution in ICR mice after an iv injection; type: in vivo
Excerpt: Biodistribution in ICR Mice After an iv Injection of [^18F][4-(6-{2-[2-(2-Fluoro-ethoxy)-ethoxy]-ethoxy}-naphthalen-2-yl)-phenyl]-methyl-amine in 1% EtOH/0.1% BSA in Water
(% dose/organ, avg of 3 mice±SD)
(% dose/g, avg of 3 mice±SD)
Biodistribution in ICR Mice After an iv Injection of [^18F]19a in 3% EtOH/0.1% BSA in Water
Biodistribution in ICR Mice After an iv Injection of [^18F]34a in 5% EtOH/0.1% BSA in Water
Biodistribution in ICR Mice After an iv Injection of [^18F]32a in 1% EtOH/0.1% BSA in Water

[3] = Blood, 2 min after iv injection
[4] = Blood, 30 min after iv injection
[5] = Bone, 30 min after iv injection
[6] = Brain, 2 min after iv injection
[7] = Brain, 30 min after iv injection
[8] = Heart, 2 min after iv injection
[9] = Heart, 30 min after iv injection
[10] = Kidney, 2 min after iv injection
[11] = Kidney, 30 min after iv injection
[12] = Kidney, 1 hr after iv injection
[13] = Kidney, 2 hr after iv injection
[14] = Liver, 2 min after iv injection
[15] = Liver, 30 min after iv injection
[16] = Lung, 30 min after iv injection
[17] = Muscle, 2 min after iv injection
[18] = Muscle, 30 min after iv injection
[19] = Muscle, 1 hr after iv injection
[20] = Muscle, 2 hr after iv injection
[21] = Skin, 30 min after iv injection
[22] = Spleen, 2 min after iv injection
[23] = Spleen, 30 min after iv injection
[24] = Spleen, 1 hr after iv injection
[25] = Spleen, 2 hr after iv injection

## CN(C)c1ccc(-c2ccc3nc(OCCOCCOCC[18F])ccc3c2)cc1 [[^18F]32a]
[1]
  Log P: 2.77
[2]; [3]
  % dose/g: 1.80 ± 0.28 % dose/g
  % dose/organ: 3.32 ± 0.46 % dose/organ
[2]; [4]
  % dose/g: 0.99 ± 0.12 % dose/g
  % dose/organ: 1.80 ± 0.14 % dose/organ
[2]; Blood, 1 hr after iv injection
  % dose/g: 1.37 ± 0.14 % dose/g
  % dose/organ: 2.40 ± 0.19 % dose/organ
[2]; Blood, 2 hr after iv injection
  % dose/g: 1.13 ± 0.15 % dose/g
  % dose/organ: 2.00 ± 0.25 % dose/organ
[2]; Bone, 2 min after iv injection
  % dose/g: 1.25 ± 0.06 % dose/g
  % dose/organ: 4.63 ± 0.32 % dose/organ
[2]; [5]
  % dose/g: 0.81 ± 0.11 % dose/g
  % dose/organ: 2.92 ± 0.27 % dose/organ
[2]; Bone, 1 hr after iv injection
  % dose/g: 1.11 ± 0.14 % dose/g
  % dose/organ: 3.91 ± 0.37 % dose/organ
[2]; Bone, 2 hr after iv injection
  % dose/g: 1.47 ± 0.27 % dose/g
  % dose/organ: 5.19 ± 0.80 % dose/organ
[2]; [6]
  % dose/g: 7.76 ± 1.25 % dose/g
  % dose/organ: 3.56 ± 0.47 % dose/organ
[2]; [7]
  % dose/g: 2.33 ± 0.68 % dose/g
  % dose/organ: 1.07 ± 0.24 % dose/organ
[2]; Brain, 1 hr after iv injection
  % dose/g: 1.92 ± 0.31 % dose/g
  % dose/organ: 0.86 ± 0.14 % dose/organ
[2]; Brain, 2 hr after iv injection
  % dose/g: 1.45 ± 0.11 % dose/g
  % dose/organ: 0.66 ± 0.03 % dose/organ
[2]; [8]
  % dose/g: 10.1 ± 1.14 % dose/g
  % dose/organ: 1.36 ± 0.20 % dose/organ
[2]; [9]
  % dose/g: 1.99 ± 0.43 % dose/g
  % dose/organ: 0.26 ± 0.06 % dose/organ
[2]; Heart, 1 hr after iv injection
  % dose/g: 2.07 ± 0.23 % dose/g
  % dose/organ: 0.25 ± 0.03 % dose/organ
[2]; Heart, 2 hr after iv injection
  % dose/g: 1.28 ± 0.09 % dose/g
  % dose/organ: 0.15 ± 0.01 % dose/organ
[2]; [10]
  % dose/g: 13.0 ± 3.04 % dose/g
  % dose/organ: 5.25 ± 0.89 % dose/organ
[2]; [11]
  % dose/g: 3.61 ± 0.65 % dose/g
  % dose/organ: 1.55 ± 0.33 % dose/organ
[2]; [12]
  % dose/g: 3.38 ± 0.38 % dose/g
  % dose/organ: 1.24 ± 0.19 % dose/organ
[2]; [13]
  % dose/g: 1.78 ± 0.06 % dose/g
  % dose/organ: 0.73 ± 0.02 % dose/organ
[2]; [14]
  % dose/g: 16.3 ± 4.96 % dose/g
  % dose/organ: 19.4 ± 3.67 % dose/organ
[2]; [15]
  % dose/g: 8.02 ± 0.65 % dose/g
  % dose/organ: 11.2 ± 1.65 % dose/organ
[2]; Liver, 1 hr after iv injection
  % dose/g: 8.10 ± 1.59 % dose/g
  % dose/organ: 9.75 ± 1.79 % dose/organ
[2]; Liver, 2 hr after iv injection
  % dose/g: 5.22 ± 0.49 % dose/g
  % dose/organ: 6.34 ± 0.87 % dose/organ
[2]; Lung, 2 min after iv injection
  % dose/g: 7.63 ± 0.46 % dose/g
  % dose/organ: 1.54 ± 0.16 % dose/organ
[2]; [16]
  % dose/g: 2.31 ± 0.42 % dose/g
  % dose/organ: 0.42 ± 0.07 % dose/organ
[2]; Lung, 1 hr after iv injection
  % dose/g: 2.21 ± 0.19 % dose/g
  % dose/organ: 0.40 ± 0.01 % dose/organ
[2]; Lung, 2 hr after iv injection
  % dose/g: 1.43 ± 0.03 % dose/g
  % dose/organ: 0.27 ± 0.00 % dose/organ
[2]; [17]
  % dose/g: 0.83 ± 0.19 % dose/g
  % dose/organ: 8.87 ± 2.47 % dose/organ
[2]; [18]
  % dose/g: 1.20 ± 0.28 % dose/g
  % dose/organ: 12.3 ± 2.18 % dose/organ
[2]; [19]
  % dose/g: 1.09 ± 0.09 % dose/g
  % dose/organ: 11.0 ± 0.64 % dose/organ
[2]; [20]
  % dose/g: 0.81 ± 0.14 % dose/g
  % dose/organ: 8.16 ± 1.14 % dose/organ
[2]; Skin, 2 min after iv injection
  % dose/g: 0.42 ± 0.06 % dose/g
  % dose/organ: 1.68 ± 0.22 % dose/organ
[2]; [21]
  % dose/g: 0.98 ± 0.33 % dose/g
  % dose/organ: 3.86 ± 1.41 % dose/organ
[2]; Skin, 1 hr after iv injection
  % dose/g: 0.94 ± 0.06 % dose/g
  % dose/organ: 3.53 ± 0.16 % dose/organ
[2]; Skin, 2 hr after iv injection
  % dose/g: 0.82 ± 0.15 % dose/g
  % dose/organ: 3.11 ± 0.48 % dose/organ
[2]; [22]
  % dose/g: 4.95 ± 0.78 % dose/g
  % dose/organ: 0.51 ± 0.09 % dose/organ
[2]; [23]
  % dose/g: 1.56 ± 0.28 % dose/g
  % dose/organ: 0.15 ± 0.03 % dose/organ
[2]; [24]
  % dose/g: 1.64 ± 0.13 % dose/g
  % dose/organ: 0.15 ± 0.04 % dose/organ
[2]; [25]
  % dose/g: 1.16 ± 0.07 % dose/g
  % dose/organ: 0.09 ± 0.01 % dose/organ
